Each structure is given as a SMILES string. “Also recorded” adds a separate entry of the source. Bounds are passed on as bounds.

The text below walks through data of patent US8546430B2, “Thalidomide analogs” (P2D, Inc., priority 2003, dated 2013).

The subject of one data set is 3′-UTR of human TNF-α. In words: Luciferase reporter assay, RAW264.7 cells with vs without the TNF-α 3′-UTR. It is filed as cell-based. Particulars: mouse macrophage line RAW264.7, 16 h; FIG. 1. As to the method:
To determine the involvement of the 3′-UTR in the action of the thalidomide analogs, their ability to inhibit reporter gene activity in cells containing the TNF-α3′-UTR versus a control vector was assessed. This cell-based assay utilized two stably transfected cell lines derived from the mouse macrophage line, RAW264.7. One line, designated “luciferase only” expressed a luciferase reporter construct without any UTR sequences. The other line, designated “luciferase+TNF-α UTR” expressed a luciferase reporter construct with the entire 3′-UTR of human TNF-α inserted directly downstream of the luciferase coding region. Compounds were added in a concentration-dependent manner, and at the end of the incubation period (16 h, 37° C., 5% CO2) the media was removed, cells were lysed and luciferase activity was assayed with Steady-glo luciferase assay reagent (Promega) according to the supplier's directions. Background was subtracted and data from this assay was expressed as a ratio of the +3′-UTR to −3′-UTR (control) values, and was expressed as a percent as shown in FIG. 1. In this manner, compounds that show a differential effect on the two cell lines, with and without a 3′-UTR, are highlighted. […] All agents lowered luciferase reporter activity in cells stably expressing the 3′-UTR.

A further data set concerns TNF-α. As to the kind of experiment: Inhibition of LPS-induced TNF-α secretion in human PBMC (ELISA). It is filed as cell-based. The conditions noted are these: for IC50 / inhibition at 30 µM: Homo sapiens, LPS-induced TNF-α production in PBMC; for TNF-α inhibitory activity (in words): LPS-stimulated PBMC. As to the method: (§1) The action of the these thiothalidomide analogs in inhibiting TNF-α secretion was assessed in human peripheral blood mononuclear cells (PBMC) and the results are shown in Table 1. Freshly prepared PBMCs were utilized in all studies. Blood, 40 ml, was drawn from a volunteer, immediately mixed with 50 U/ml Na heparin and was diluted to 50 ml total volume with sterile PBS. Samples, 20 ml, of this preparation then were layered on 20 ml Ficoll-Paque and were centrifuged (800 g, 20 min). The Ficoll/serum interface, containing PBMCs, was collected, diluted to 200 ml with PBS, and then was centrifuged (800 g, 15 min) to pellet the cells. Thereafter, the recovered pellet was re-suspended in 37° C. tissue culture medium (RPMI/1 mM Sodium pyruvate/10% heat inactivated FBS/2 mM Glutamax) and placed on ice. Recovered cells were counted, pipetted (200 ul of 5×10^5/ml) into 96 well plates, and incubated for an hour (37° C., 5% CO2). Thereafter, appropriate concentrations of test compounds or vehicle (10 ul DMSO) were added to duplicate wells. Following a further hour of incubation, a 10 ul sample of lipopolysaccharide (LPS) (100 ng/ml in supplemented medium) or vehicle was added to induce stimulated and unstimulated cells, respectively, and the cells were incubated overnight. Sixteen hours later, supernatants were collected for quantification of TNF-α levels by ELISA assay (Pierce-Endogen human TNF-α mini kit, Rockford, Ill.) and the use of specific capture and detection monoclonal antibodies, M303E and M302B (Pierce-Endogen), respectively. ELISA plates were read at λ=450 nm and TNF-α levels were determined from a six-point calibration curve that was run concurrently with the test samples. The effect of test drug concentrations on the cellular viability of PBMCs was assessed by MTS assay (Promega, Madison, Wis.) of the cells that provided the supernatant samples assayed for TNF-α levels, described above. It should be understood that this method can be used to test any of the disclosed compounds as a screening assay for readily determining their TNF-α modulating activity, and for selecting them for use in the disclosed method of treating a subject.

For a further data set, the system named is PBMC. As to the kind of experiment: Cellular viability of PBMCs by MTS assay. Format: cell-based, human. How it is done: as §1
The subject of the next data set is rat aortic ring. In words: Rat aortic ring microvessel growth assay. Format: cell-based. The conditions noted are these: 0.1-20 μg/ml daily for 4 days; FIGS. 2-11. As to the method:
The angiogenesis modulating activity of representative compounds was assessed in a rat aortic ring microvessel growth assay. Briefly, twelve-well tissue culture plates were coated with 250 μl of Matrigel (Becton-Dickinson, Bedford, Mass.) and allowed to gel for 30 min at 37° C. and 5% CO2. Thoracic aortas were excised from 8- to 10-week-old male Sprague Dawley rats. After careful removal of fibroadipose tissues, the aortas were cut into 1-mm-long cross-sections, placed on Matrigel-coated wells, and covered with an additional 250 μl of Matrigel. After the second layer of Matrigel had set, the rings were covered with EGM-II and incubated overnight at 37° C. and 5% CO2. EGM-II consists of endothelial cell basal medium (EBM-II; Clonetics, San Diego, Calif.) plus endothelial cell growth factors provided as the EGM-II Bulletkit (Clonetics). The culture medium was subsequently changed to EBM-II supplemented with 2% fetal bovine serum, 0.25 μg/ml amphotericin B, and 10 μg/ml gentamicin. Aortic rings were treated daily with either the vehicle (0.5% DMSO), carboxyamidotriazole (CAI, 12 μg/ml), thalidomide or thalidomide analogs (0.1-20 μg/ml) for 4 days and photographed on the 5th day using a ×2.5 objective. CAI, a known antiangiogenic agent, was used at higher than clinically achievable concentration as a positive control. Experiments were repeated four times using aortas from four different rats. The area of angiogenic sprouting, reported in square pixels, was quantified using Adobe PhotoShop. Further details of the method are provided in Luzzio et al., J Med Chem.; 46:3793-9, 2003, which is incorporated by reference herein. It should be understood that this method can be used as an assay to rapidly select compounds having a desired angiogenic or anti-angiogenic effect, for example, for use in the disclosed methods of treating a subject.

With `NC(=O)c1cc2ccccc2cc1C(=O)NC1CCC(=O)NC1=O` (stereo not shown) [Compound 14, N-(2,6-dioxopiperidin-3-yl)-2,3-naphthalenedicarboxamide], the melting point is more than 300 °C.

Take `O=C1CCC(N2C(=O)c3ccccc3C2=O)C(=O)N1` (stereo not shown) [Compound 201, Thalidomide]: the “Luciferase reporter activity, +3′-UTR versus −3′-UTR cells (in words)” value in the data set with 3′-UTR of human TNF-α was “lacked activity at 50 μM”. For the same compound, in the data set with TNF-α, the “Inhibition of TNF-α secretion at 30 μM (in words)” value (from here on “Inhibition of TNF-α secretion”) is “entirely lacked activity” and the IC50 was approximately 200 µM. Besides, the “Concentration required for significant activity” value with TNF-α (inhibition of TNF-α secretion) turned out to be 100 µM.

Compound `O=C1NC(=S)CCC1N1C(=O)c2ccccc2C1=O` (stereo not shown) [Compound 205, 2-(2-Oxo-6-thioxo-3-piperidinyl)-1H-isoindole-1,3(2H)-dione] came in with a melting point of 225 to 226 °C. Moreover, in the data set with PBMC, the Cell viability at 0.3 μM was determined as 96%, the Cell viability at 3 μM worked out at 90% and the Cell viability at 30 μM was more than 100%. Moreover, in the data set on rat aortic ring, the “Angiogenic modulating activity (in words)” value was “anti-angiogenic activity at higher concentration, and some angiogenic activity at lower concentrations”. For the same compound, in the data set with TNF-α, the “Inhibition of TNF-α secretion” value is listed as “only marginal activity”, the IC50 is more than 30 µM and 30 µM produced 31% inhibition.

The compound `O=C(O)CCC(C(=O)O)N1C(=O)c2ccccc2C1=S` (stereo not shown) [Compound 211, 2-(1,3-Dihydro-1-oxo-3-thioxo-2H-isoindol-2-yl)-pentanedioic acid] came in with a melting point of 157 °C. For the same compound, in the data set on PBMC, the Cell viability at 0.3 μM stood at 93%, the Cell viability at 3 μM is 93% and the Cell viability at 30 μM turned out to be 86%. Moreover, the “Angiogenic modulating activity (in words)” value with rat aortic ring is reported as “angiogenic activity at all concentrations tested”. Also, in the data set on TNF-α, the half-inhibitory concentration (IC50) was more than 30 µM, at 30 µM the inhibition was 20% and the “TNF-α inhibitory activity (in words)” value is “lowered potency”.

For the compound `O=C1CCC(N2C(=O)c3ccccc3C2=S)C(=O)N1` (stereo not shown) [Compound 212, 2,3-Dihydro-3-thioxo-2-(2,6-dioxo-3-piperidinyl)-1H-isoindol-1-one], the melting point was found to be 255 °C. In the data set with PBMC, the Cell viability at 0.3 μM turned out to be 94%, the Cell viability at 3 μM stood at 100% and the Cell viability at 30 μM was determined as 94%. Further, in the data set on TNF-α, the “Inhibition of TNF-α secretion” value is reported as “only marginal activity”, the half-maximal inhibitory concentration (IC50) is more than 30 µM and the inhibition at 30 µM turned out to be 23%.

Turning to `O=C1c2ccccc2C(=O)N1C1CCC(=S)NC1=S` (stereo not shown) [Compound 213, 2-(2,6-Dithioxo-3-piperidinyl)-1H-isoindole-1,3(2H)-dione], the melting point was in the range of 263 to 265 °C. Further, in the data set with PBMC, the “Toxicity / cytotoxicity (in words)” value is on record as “induced increasing cytotoxicity at higher concentrations; also recorded: induces toxicity at high concentration”, the Cell viability at 0.3 μM was 94%, the Cell viability at 3 μM was 87% and the Cell viability at 30 μM came out at 69%. Further, the “Angiogenic modulating activity (in words)” value in the data set with rat aortic ring is listed as “anti-angiogenic activity at all concentrations tested”. Besides, in the data set on TNF-α, the IC50 was 20 µM, the inhibition at 30 µM was 52% and the “TNF-α inhibitory activity (in words)” value is listed as “less active than dithioglutarimide 219”.

Regarding `O=C1NC(=S)CCC1N1C(=O)c2ccccc2C1=S` (stereo not shown) [Compound 215, 2,3-dihydro-3-thioxo-2-(2-oxo-6-thioxo-3-piperidinyl)-1H-isoindol-1-one], in the data set on PBMC, the “Toxicity / cytotoxicity (in words)” value is “without toxicity”, the Cell viability at 0.3 μM stood at 94%, the Cell viability at 3 μM came out at 87% and the Cell viability at 30 μM is more than 100%. The “Luciferase reporter activity, +3′-UTR versus −3′-UTR cells (in words)” value in the data set on 3′-UTR of human TNF-α is “differential effect on the two cell lines in a dose-dependent manner”. For the same compound, in the data set with TNF-α, the IC50 stood at 11 µM, the inhibition at 30 µM worked out at 61% and the “TNF-α inhibitory activity (in words)” value was “potently inhibited TNF-α secretion”.

Consider `O=C1c2ccccc2C(=S)N1C1CCC(=S)NC1=S` (stereo not shown) [Compound 216, 2,3-Dihydro-3-thioxo-2-(2,6-dithioxo-3-piperidinyl)-1H-isoindol-1-one], for which, in the data set with PBMC, the “Toxicity / cytotoxicity (in words)” value was “without accompanying toxicity”, the Cell viability at 0.3 μM amounted to 90%, the Cell viability at 3 μM is 86% and the Cell viability at 30 μM amounted to 94%. The “Luciferase reporter activity, +3′-UTR versus −3′-UTR cells (in words)” value in the data set with 3′-UTR of human TNF-α is “differential effect on the two cell lines in a dose-dependent manner”. The “Angiogenic modulating activity (in words)” value in the data set with rat aortic ring was “potent anti-antigiogenic activity at higher concentrations and angiogenic activity at lower concentrations”. In the data set with TNF-α, half-maximal inhibition (IC50) required 6 µM, 30 µM produced 79% inhibition and the “TNF-α inhibitory activity (in words)” value is listed as “potently inhibited TNF-α secretion”. The “Fold more active than thalidomide 201” value in the data set on TNF-α (inhibition of TNF-α synthesis, from IC50 values) is “over 30 fold”.

As to `O=C1CCCC(=S)N1` [Compound 218, 6-Thioxo-2-piperidinone], the melting point is 135 °C. In the data set with PBMC, this compound registered a Cell viability at 0.3 μM of 86%, a Cell viability at 3 μM of 84% and a Cell viability at 30 μM of more than 100%. Also, in the data set on TNF-α, the “Inhibition of TNF-α secretion” value is recorded as “minimally inhibited TNF-α secretion”, the half-inhibitory concentration (IC50) was more than 30 µM and 30 µM produced 15% inhibition.

`O=C1c2ccccc2C(=O)N1C1CC=CCC1` (stereo not shown) [Compound 221, 2-(3-Cyclohexenyl)-1H-isoindole-1,3(2H)-dione]: the melting point is 114 °C.

In turn, `O=C1c2ccccc2C(=S)N1C1CC=CCC1` (stereo not shown) [Compound 223, 2,3-dihydro-3-thioxo-2-(3-cyclohexenyl)-1H-isoindol-1-one] had a melting point of 67 to 68 °C. For the same compound, in the data set on PBMC, the “Toxicity / cytotoxicity (in words)” value was “some toxicity at 30 μM”, the Cell viability at 0.3 μM stood at 99%, the Cell viability at 3 μM is 89% and the Cell viability at 30 μM was found to be 57%. In the data set with TNF-α, the IC50 was found to be 16 µM, testing at 30 µM gave an inhibition of 85% and the “TNF-α inhibitory activity (in words)” value is given as “active TNF-α inhibitors”.

With `S=C1NC(=S)c2ccccc21` [Compound 224, dithiophthalimide], in the data set with PBMC, the “Toxicity / cytotoxicity (in words)” value is given as “associated with toxicity at 30 μM”, the Cell viability at 0.3 μM stood at 83%, the Cell viability at 3 μM came to 83% and the Cell viability at 30 μM is 54%. In addition, the “Angiogenic modulating activity (in words)” value in the data set with rat aortic ring was “angiogenic activity at all concentrations tested”. Also, in the data set on TNF-α, it took 3 µM to reach half-maximal inhibition (IC50), the inhibition at 30 µM worked out at 95% and the “TNF-α inhibitory activity (in words)” value is reported as “potent activity”.
